Laboratory results from US6488966B2, “Composition and method for reducing the risk of carcinogenesis” (The Trustees of Dartmouth College, priority 1998, dated 2002).
Like-named read-outs stand apart in the source and are kept apart here.

Assays:
[1] = Description: (§1) We reviewed data from 2,918 apparently eligible patients. […] The trial was double-blind; neither subjects nor study staff were told the subjects' treatment assignments.
At enrollment and at the time of each of the two follow-up colonoscopies, we obtained venous blood specimens in mineral-free tubes. Serum was initially stored at −20° C. or lower, pending shipment to Dartmouth for storage at −70° C. until analysis. At enrollment and the end of the study, we also assessed subjects' diet with a validated food frequency questionnaire (Block et al., Am. J. Epidemiol., 124:453-69, 1986). Every six months, we sent patients questionnaires regarding adherence to study agents; use of medications, over-the-counter drugs and nutritional supplements; and the occurrence of symptoms, illnesses, and hospitalizations. Recruitment into the study began in November 1988 and ended in April 1992. Follow-up ended in December 1996.
(§2) For our statistical analyses, we compared proportions using Fisher's exact test, and measured data using t-tests or rank tests (Snedecor and Cochran, Statistical Methods, Seventh Edition, Ames: Iowa State University Press, 1980). […] To address the first issue, we used overdispersed log-linear quasi-likelihood models programmed in SPlus (Seattle) to provide unadjusted and adjusted estimates and confidence intervals for the relative risk of at least one recurrent adenoma (McCullagh and Nelder, Generalized Linear Models (Second Edition), Chapman-Hall, 1989). […] Co-variates included age (linear term), gender, the lifetime number of adenomas before study entry, clinical center, and the length of the surveillance interval. Possible interactions were considered using product interaction terms. Subgroup analyses included investigation of subjects above and below the median of the calorie-adjusted intake (Willet, Nutritional Epidemiology, Oxford University Press, 1990) of selected nutrients. […] All P-values were two-sided.

[2] = tested on: colorectal adenomas
From the text: Dartmouth was the coordinating center and the University of Minnesota was the pathology center. Human subjects committees at each center approved the study protocol; an independent safety and data monitoring committee reviewed the study semi-annually.
Staff at each clinical center monitored colonoscopy and pathology records at associated endoscopy units to identify patients with at least one histologically-confirmed large bowel adenoma removed within three months of recruitment, and with the entire large bowel mucosa subsequently examined and judged free of remaining polyps.
as §1
Subjects received two follow-up colonoscopies as part of their routine clinical care, generally by the same physician who conducted the qualifying exam. The first follow-up examination was planned for approximately one year after the qualifying colonoscopy (about nine months after randomization), and a second follow-up examination was planned for thirty-six months after that. Large bowel endoscopy was otherwise discouraged unless clinically indicated (e.g., for rectal bleeding). Follow-up examinations were considered “adequate” if the entire large bowel mucosa was visualized, and no polyps remained at the end of the procedure. We designated the time from randomization to the first follow-up exam as the first study interval, and the period after the first follow-up exam up to (and including) the second follow-up colonoscopy as the second study interval.
At each colonoscopy, the endoscopist recorded the size and location of all mucosal lesions, using standard clinical technique. […] In cases of disagreement, we accepted the study pathologist's diagnosis.
The primary endpoint of the trial was the proportion of subjects having at least one adenoma detected during the second study interval, i.e., after the first follow-up colonoscopy, up to and including the second follow-up examination (including adenomas detected during interim endoscopies).
as §2

[3] = at least one endoscopy, study exams
[4] = at or before the first follow-up
[5] = calcium vs placebo, 913 subjects with at least one study colonoscopy
[6] = calcium vs placebo, completed the study, 2nd study interval
[7] = calcium vs placebo, completed the trial, first study interval
[8] = calcium vs placebo, second study interval
[9] = completed the study, 1st or 2nd study interval
[10] = completed the study, 1st study exam
[11] = completed the study, 2nd study exam
[12] = completed the study, 2nd study interval (main risk period)

## O=C([O-])[O-].[Ca+2] [calcium, calcium carbonate]
[1]; after randomization
  Hospitalized: All cancer, %: (3.2) %
  Hospitalized: Cardiac disease, %: (10.8) %
  Hospitalized: Gastrointestinal disease, %: (8.2) %
  Hospitalized: Other, %: (27.2) %
  Hospitalized: Stroke, %: (2.6) %
  Stopped treatment because of perceived toxicity, %: (2.6) %
  patients diagnosed with definite or probable urinary stones: Two
[1]; after randomization, any reason
  Subjects Hospitalized, %: (37.1) %
[1]; calcium supplementation during the trial, listed as calcium carbonate
  toxicity (in words): minimal
[1]; calcium vs placebo
  frequency of digestive symptoms (including constipation): did not differ materially
  medical complaints and complications (in words): not associated with treatment assignment
[2]; at least one endoscopy, 1st or 2nd interval
  Mean number of adenomas: 0.92
[2]; [3]
  % with one or more adenomas: 42.3%
  Mean number of adenomas: 0.86
[2]; [4]
  participants with an adenoma with severe atypia removed: one
  patients with invasive cancer: 2
[2]; calcium vs placebo, adjusted, completed the study (832 subjects), 2nd study interval
  Ratio of the mean number of adenomas: 0.76
[2]; [5]
  unadjusted ratio of the average numbers of adenomas: 0.74
  unadjusted risk ratio of at least one adenoma after randomization: 0.85
[2]; [6]
  unadjusted ratio of the average number of adenomas: 0.75
  unadjusted risk ratio for at least one adenoma: 0.83
[2]; [7]
  unadjusted ratio of the average numbers of adenomas: 0.73
  unadjusted risk ratio for at least one adenoma: 0.77
[2]; [8]
  unadjusted risk ratio for at least one adenoma 0.5 cm or greater versus no adenomas: 0.87
  unadjusted risk ratio, largest adenoma less than 0.5 cm versus no adenomas: 0.75
[2]; [9]
  % with one or more adenomas: 44.7%
  Mean number of adenomas: 0.98
[2]; [10]
  % with one or more adenomas: 24.4%
  Mean number of adenomas: 0.40
[2]; completed the study, 1st study interval
  Mean number of adenomas: 0.43
[2]; [11]
  % with one or more adenomas: 30.1%
  Mean number of adenomas: 0.51
[2]; completed the study, 2nd study interval
  mean size of the largest adenoma: 0.4 cm
[2]; [12]
  % with one or more adenomas: 31.1%
  Mean number of adenomas: 0.55
[2]; completed the study, 2nd study interval (main risk period), listed as CALCIUM
  % with one or more adenomas: 31.1%
[2]; completed the study, main risk period (2nd study interval)
  number of patients with at least one colorectal adenoma: 127
[2]; completed the trial, up to and including the first follow-up exam
  number of subjects with at least one adenoma: 103
[2]; during the main risk period
  adenomas with severe atypia removed: no adenomas with severe atypia were removed
  subjects with invasive large bowel cancer: 1
[2]; second study interval
  subjects whose largest adenoma was less than 0.5 cm: 70
  subjects with an adenoma 0.5 cm or greater: 57
[2]; subjects who completed the study (409 calcium), 1st study interval (randomization to first follow-up colonoscopy)
  % with one or more adenomas: 25%
[2]; subjects who completed the study (409 calcium), 1st study interval (randomization to first follow-up colonoscopy), listed as CALCIUM
  % with one or more adenomas: 25.2%
[2]; subjects who had at least one endoscopy (454 calcium), 1st or 2nd interval
  % with one or more adenomas: 43.2%
